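Method: 48-hour compound exposure of cells in 96-well plates, five concentrations, linear interpolation of endpoints. The concentration for 50% growth inhibition is given as GI50.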 Calls of active or inactive are those of the source. Cut-off read from the data, not from the text of the source: active = GI50 up to about 1.1 µM and inactive = higher.
What was measured:
Experiment in all cases: NCI-60 cell line screen, 48 h
[1] = tested on: A549
[2] = tested on: ACHN
[3] = tested on: CCRF-CEM
[4] = tested on: EKVX
[5] = tested on: HL-60
[6] = tested on: Hs-578T
[7] = tested on: MDA-MB-435
[8] = tested on: NCI/ADR-RES
[9] = tested on: OVCAR-3
[10] = tested on: OVCAR-5
[11] = tested on: OVCAR-8
[12] = tested on: SF-268
[13] = tested on: SNB-19
[14] = tested on: SR
[15] = tested on: SW-620
[16] = tested on: UACC-257
[17] = tested on: UO-31
[18] = tested on: CAKI-1
[19] = tested on: SK-MEL-2

Compound	GI50 [1]	GI50 [2]	GI50 [3]	GI50 [4]	GI50 [5]	GI50 [6]	GI50 [7]	GI50 [8]	GI50 [9]	GI50 [10]	GI50 [11]	GI50 [12]	GI50 [13]	GI50 [14]	GI50 [15]	GI50 [16]	GI50 [17]	GI50 [18]	GI50 [19]
O=C(CNc1cccc([N+](=O)[O-])c1)Nn1c(-c2ccccc2)nc2ccccc2c1=O	1.74 µM (inactive)	1.4 µM (inactive)	0.316 µM (active)	2.41 µM (inactive)	0.422 µM (active)	0.581 µM (active)	2.02 µM (inactive)	0.282 µM (active)	2.38 µM (inactive)	1.77 µM (inactive)	1.59 µM (inactive)	1.69 µM (inactive)	2.11 µM (inactive)	0.271 µM (active)	0.33 µM (active)	2.15 µM (inactive)	0.743 µM (active)	–	–
Cc1cc(-c2nc3ccccc3s2)ccc1NS(=O)(=O)O	> 5.82 µM (inactive)	> 7.78 µM (inactive)	> 4.65 µM (inactive)	–	–	> 6.28 µM (inactive)	> 7.08 µM (inactive)	> 7.1 µM (inactive)	–	> 4.65 µM (inactive)	> 4.85 µM (inactive)	> 9.64 µM (inactive)	> 24.4 µM (inactive)	4.34 µM (inactive)	> 4.65 µM (inactive)	> 6.43 µM (inactive)	> 7.82 µM (inactive)	> 7.21 µM (inactive)	–
COc1cc(Br)c(OC)c2c(OC)cc(C)cc12	–	> 100 µM (inactive)	42.5 µM (inactive)	–	14.7 µM (inactive)	52 µM (inactive)	70.6 µM (inactive)	> 100 µM (inactive)	> 100 µM (inactive)	> 100 µM (inactive)	> 100 µM (inactive)	> 100 µM (inactive)	> 100 µM (inactive)	0.731 µM (active)	> 100 µM (inactive)	> 100 µM (inactive)	> 100 µM (inactive)	–	> 100 µM (inactive)
CC(NC(=O)CNP(=O)(c1ccccc1)c1ccccc1)C(=O)NC(Cc1ccccc1)C(=O)OCc1ccccc1 (stereo not given)	> 100 µM (inactive)	–	> 10 µM (inactive)	24.1 µM (inactive)	28.6 µM (inactive)	27.5 µM (inactive)	50.2 µM (inactive)	> 100 µM (inactive)	43 µM (inactive)	> 100 µM (inactive)	> 100 µM (inactive)	21.6 µM (inactive)	51.2 µM (inactive)	24.9 µM (inactive)	45.7 µM (inactive)	> 100 µM (inactive)	> 100 µM (inactive)	> 100 µM (inactive)	51.2 µM (inactive)
CCn1c(=O)c2nc(SC)sc2n(-c2ccc(C)cc2)c1=O	> 100 µM (inactive)	> 100 µM (inactive)	> 100 µM (inactive)	–	> 100 µM (inactive)	21.3 µM (inactive)	2.17 µM (inactive)	> 100 µM (inactive)	> 100 µM (inactive)	> 100 µM (inactive)	> 100 µM (inactive)	> 100 µM (inactive)	> 100 µM (inactive)	> 100 µM (inactive)	> 100 µM (inactive)	> 100 µM (inactive)	32.1 µM (inactive)	–	66.4 µM (inactive)
Cc1c(/C=N\NC(=S)N(C)CCN(C)C(=S)N/N=C\c2c(C)n(C)n(-c3ccccc3)c2=O)c(=O)n(-c2ccccc2)n1C	> 100 µM (inactive)	> 100 µM (inactive)	–	> 100 µM (inactive)	–	> 100 µM (inactive)	> 100 µM (inactive)	> 100 µM (inactive)	> 100 µM (inactive)	> 100 µM (inactive)	–	> 100 µM (inactive)	> 100 µM (inactive)	35.3 µM (inactive)	> 100 µM (inactive)	> 100 µM (inactive)	> 100 µM (inactive)	> 100 µM (inactive)	> 100 µM (inactive)
COP1(=O)OCc2cnccc2O1 (stereo not given)	> 100 µM (inactive)	> 100 µM (inactive)	–	> 100 µM (inactive)	–	> 100 µM (inactive)	> 100 µM (inactive)	> 100 µM (inactive)	> 100 µM (inactive)	> 100 µM (inactive)	> 100 µM (inactive)	> 100 µM (inactive)	> 100 µM (inactive)	> 100 µM (inactive)	> 100 µM (inactive)	> 100 µM (inactive)	> 100 µM (inactive)	> 100 µM (inactive)	> 100 µM (inactive)
COC[C@H](Cc1ccccc1)/N=C/c1ccccc1	> 100 µM (inactive)	> 100 µM (inactive)	> 100 µM (inactive)	> 100 µM (inactive)	–	> 100 µM (inactive)	> 100 µM (inactive)	> 100 µM (inactive)	–	> 100 µM (inactive)	> 100 µM (inactive)	> 100 µM (inactive)	> 100 µM (inactive)	> 100 µM (inactive)	> 100 µM (inactive)	> 100 µM (inactive)	> 100 µM (inactive)	> 100 µM (inactive)	> 100 µM (inactive)
O=C(O)c1ccc(Nc2nc3ccc(C(F)(F)F)cc3nc2-c2ccccc2)cc1	27 µM (inactive)	32.9 µM (inactive)	36.1 µM (inactive)	29 µM (inactive)	20.6 µM (inactive)	46.3 µM (inactive)	34.9 µM (inactive)	28.8 µM (inactive)	17.9 µM (inactive)	78 µM (inactive)	30.9 µM (inactive)	40.3 µM (inactive)	52.2 µM (inactive)	28.1 µM (inactive)	45.7 µM (inactive)	70 µM (inactive)	23.9 µM (inactive)	44.6 µM (inactive)	–
NC(=O)C/C=C/CC(N)=O	> 100 µM (inactive)	> 100 µM (inactive)	> 100 µM (inactive)	> 100 µM (inactive)	> 100 µM (inactive)	> 100 µM (inactive)	> 100 µM (inactive)	> 100 µM (inactive)	> 100 µM (inactive)	> 100 µM (inactive)	> 100 µM (inactive)	> 100 µM (inactive)	> 100 µM (inactive)	–	> 100 µM (inactive)	> 100 µM (inactive)	> 100 µM (inactive)	> 100 µM (inactive)	> 100 µM (inactive)
CC(C)N(c1cc2c(cc1F)c(=O)c(C(=O)O)cn2-c1ccc(N2CCN(C)CC2)cn1)C(C)C	> 100 µM (inactive)	–	> 100 µM (inactive)	> 100 µM (inactive)	> 100 µM (inactive)	> 100 µM (inactive)	> 100 µM (inactive)	> 100 µM (inactive)	> 100 µM (inactive)	> 100 µM (inactive)	> 100 µM (inactive)	> 100 µM (inactive)	> 100 µM (inactive)	> 100 µM (inactive)	> 100 µM (inactive)	> 100 µM (inactive)	> 100 µM (inactive)	> 100 µM (inactive)	–
N#Cc1sc2c(c1OC(=O)c1ccccc1)c(=O)n(-c1ccccc1)c(=S)n2-c1ccccc1	29.3 µM (inactive)	–	19.8 µM (inactive)	28.6 µM (inactive)	24.4 µM (inactive)	14.8 µM (inactive)	24 µM (inactive)	21 µM (inactive)	28.1 µM (inactive)	–	36.5 µM (inactive)	33.5 µM (inactive)	36.1 µM (inactive)	30.8 µM (inactive)	28.8 µM (inactive)	35.7 µM (inactive)	18.3 µM (inactive)	35.9 µM (inactive)	28.6 µM (inactive)
CCOC(=O)C(=Cc1[nH]c2ccccc2c1-c1c[nH]c2ccccc12)C(=O)OCC	16.6 µM (inactive)	12.2 µM (inactive)	–	16.1 µM (inactive)	–	29.9 µM (inactive)	5.96 µM (inactive)	7.16 µM (inactive)	9.33 µM (inactive)	15.1 µM (inactive)	11.3 µM (inactive)	13.3 µM (inactive)	14.2 µM (inactive)	3.13 µM (inactive)	–	10.4 µM (inactive)	13.5 µM (inactive)	17.1 µM (inactive)	11.7 µM (inactive)
Oc1cccnc1CN1CCCCC1	> 100 µM (inactive)	> 100 µM (inactive)	–	> 100 µM (inactive)	–	> 100 µM (inactive)	> 100 µM (inactive)	> 100 µM (inactive)	> 100 µM (inactive)	> 100 µM (inactive)	> 100 µM (inactive)	> 100 µM (inactive)	> 100 µM (inactive)	> 100 µM (inactive)	> 100 µM (inactive)	> 100 µM (inactive)	> 100 µM (inactive)	> 100 µM (inactive)	> 100 µM (inactive)
CCCCCCCCCC[C@H](O)[C@H](O)CC[C@@H](O)[C@H]1CC[C@@H]([C@H]2CC[C@H](CCCCCCC[C@@H](O)CC3=C[C@H](C)OC3=O)O2)O1	1.84 µM (inactive)	17.4 µM (inactive)	2.52 µM (inactive)	1.46 µM (inactive)	1.9 µM (inactive)	2.79 µM (inactive)	1.31 µM (inactive)	1.25 µM (inactive)	1.42 µM (inactive)	6.28 µM (inactive)	2.95 µM (inactive)	2.15 µM (inactive)	1.84 µM (inactive)	–	2.56 µM (inactive)	1.55 µM (inactive)	1.22 µM (inactive)	2.25 µM (inactive)	1.72 µM (inactive)
O=C([O-])C1([n+]2c(-c3ccccc3)cc(-c3ccccc3)cc2-c2ccccc2)CC1	> 100 µM (inactive)	> 100 µM (inactive)	48.2 µM (inactive)	22.7 µM (inactive)	21.8 µM (inactive)	56.8 µM (inactive)	19.2 µM (inactive)	> 100 µM (inactive)	38.6 µM (inactive)	> 100 µM (inactive)	> 100 µM (inactive)	42.3 µM (inactive)	43.2 µM (inactive)	76.2 µM (inactive)	> 100 µM (inactive)	25.4 µM (inactive)	–	–	–

From ChEMBL document CHEMBL1201862, “PubChem BioAssay data set” (2004)
